Values after ≈ are worked out from the molar mass of the structure shown. “Also recorded” adds a separate entry of the source. Peptide text beside a SMILES is read from it.
Assays:
[1] = tested on: Acinetobacter baumannii (ATCC 17978); assay: microbe, parasite or virus in culture; format: cell-based; conditions: ATCC 17978, 3 h
How it was run: (§1)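 Complete loss of viable bacteria after 3 h defined the MBC. Two-fold peptide series, 25 µM top concentration, ~10^7 log-phase cells in potassium-phosphate buffer pH 7.4.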

[2] = tested on: Enterococcus faecalis (ATCC 29212); format: cell-based; conditions: for Ability to kill E. faecalis: 3 h, ~10^7 log phase bacteria, peptides ≤25 µM; for MBC Enterococcus faecalis: ATCC 29212, 3 h
How it was run: as §1

[3] = tested on: Escherichia coli (ATCC 8739); format: cell-based; conditions: ATCC 8739, 3 h
How it was run: as §1

[4] = tested on: Klebsiella pneumoniae (NCTC 13440); format: cell-based; conditions: NCTC 13440, 3 h
How it was run: as §1

[5] = tested on: Listeria monocytogenes (ATCC 19111); format: cell-based; conditions: ATCC 19111, 3 h
How it was run: as §1

[6] = tested on: Pseudomonas aeruginosa (ATCC 27853); format: cell-based; conditions: ATCC 27853, 3 h
How it was run: as §1

[7] = tested on: Salmonella enterica (ATCC 13076); format: cell-based; conditions: ATCC 13076, 3 h
How it was run: as §1

[8] = tested on: Staphylococcus aureus (HNCMO112011); format: cell-based; conditions: HNCMO112011, 3 h
How it was run: as §1

[9] = tested on: E. coli, S. enteritidis, P. aeruginosa, L. monocytogenes, S. aureus, E. faecalis, K. pneumoniae and A. baumannii; assay: Antimicrobial activity assay, spectrum over the eight tested pathogenic bacteria; format: cell-based; conditions: 3 h treatment of ~10^7 log phase bacteria, peptides 25 to 0.8 µM; active = MBC ≤25 µM
How it was run: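 Log-phase bacteria (~10^7) treated 3 h with NCR peptides in potassium-phosphate buffer pH 7.4, two-fold dilutions from 25 µM to 0.8 µM. MBC is the lowest concentration completely eliminating viable bacteria. Strains: E. faecalis ATCC 29212, S. aureus HNCMO112011, L. monocytogenes ATCC 19111, P. aeruginosa ATCC 27853, E. coli ATCC 8739, S. enterica ATCC 13076, K. pneumoniae NCTC 13440, A. baumannii ATCC 17978.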

A. baumannii = assay: Scanning electron microscopy of cell morphology; format: cell-based, Acinetobacter baumannii; conditions: 30 min treatment, peptide 1.6 or 3.125 µM as in Figure 3 legend
Description: (§2) A. baumannii and C. albicans were grown and treated the same way as for the membrane permeability assay. Cells were then fixed with 2.5% (v/v) glutaraldehyde in phosphate buffered saline (PBS, pH 7.4). 5 μl of the above bacterial and yeast suspensions were spotted on a silicon disk coated with 0.01% Poly-L-Lysine. The filters were washed twice with PBS and gradually dehydrated with ethanol series (30, 50, 70, 80%, and three times 100% ethanol, each for minimum 30 min). The samples were dried with a critical point dryer (K850: Quorum Technologies Ltd.), followed by 12 nm gold coating and observed under a JEOL JSM-7100F/LV scanning electron microscope.
FIGURE 3 Viability, membrane permeability and morphology of A. baumannii cells after NCR treatment (A–L) SYTO9/PI staining observed with confocal microscope, (M–X) Cell morphology observed with SEM. (A,M) untreated control, (B,N) CaNCR13, 3.125 µM, (C,O) CaNCR63, 3.125 µM, (D,P) CaNCR63_1-20, 3.125 µM, (E,Q) CaNCR63_15-34, 3.125 µM, (F,R) MsNCR443, 3.125 µM, (G,S) MsNCR463_16-35, 1.6 µM, (H,T) MsNCR463_17-30, 3.125 µM, (I,U) PsNCR349, 1.6 µM, (J,V) PsNCR349_26-50, 3.125 µM, (K,W) PsNCR349_31-50, 3.125 µM, (L,X) PsNCR352, 1.6 µM.

C. albicans = assay: Scanning electron microscopy of cell morphology; format: cell-based, Candida albicans; conditions: 30 min treatment, peptide 1.6, 3.125 or 25 µM as in Figure 4 legend
Description: as §2

[10] = tested on: Lambda DNA/HindIII marker; assay: Gel retardation assay (DNA aggregation); format: binding; conditions: 100 ng DNA, 5 or 10 µM peptide in water, 30 min at room temperature, 1% agarose gel
Description: Interactions of peptides with DNA was visualized with gel retardation assay ([Hsu et al., 2005]). 100 ng Lambda DNA/HindIII marker (ThermoFisher Scientific) was incubated with 0, 5 or 10 µM synthetic NCRs or NCR derivatives in water for 30 min at room temperature and then loaded into 1% agarose gel. Electrophoresis of DNA fragments separated the mobile HindIII-digested DNA fragments while the aggregated DNA remained in the loading wells.
FIGURE 6 Aggregation of DNA by NCR peptides. Lambda HindIII digested DNA was incubated without (0) or with NCR peptides at 5 or 10 μM concentration.

Compound	MBC Acinetobacter baumannii [1] [µM]	Ability to kill E. faecalis [2]	MBC Enterococcus faecalis [2] [µM]	MBC Escherichia coli [3] [µM]	MBC Klebsiella pneumoniae [4] [µM]	MBC Listeria monocytogenes [5] [µM]	MBC Pseudomonas aeruginosa [6] [µM]	MBC Salmonella enterica [7] [µM]	MBC Staphylococcus aureus [8] [µM]	Antibacterial spectrum over the eight tested bacterial strains [9]	Morphology of A. baumannii cells by SEM (A. baumannii)	Morphology of C. albicans cells by SEM (C. albicans)	Aggregation of HindIII-digested λ DNA (DNA retained in loading wells) [10]
CC[C@H](C)[C@H](N)C(=O)N[C@@H](Cc1ccc(O)cc1)C(=O)N[C@@H](Cc1ccccc1)C(=O)N[C@@H](CCCNC(=N)N)C(=O)N[C@@H](CCCCN)C(=O)N1CCC[C@H]1C(=O)N1CCC[C@H]1C(=O)N1CCC[C@H]1C(=O)N[C@@H](CS)C(=O)N[C@H](C(=O)N[C@H](C(=O)N[C@@H](CC(=O)O)C(=O)N[C@@H](CCCCN)C(=O)N[C@@H](CC(=O)O)C(=O)N[C@@H](CS)C(=O)N1CCC[C@H]1C(=O)N[C@@H](CCC(N)=O)C(=O)N[C@@H](CCSC)C(=O)N[C@@H](CCCCN)C(=O)N[C@H](C(=O)N[C@@H](CC(N)=O)C(=O)N[C@@H](CC(N)=O)C(=O)N[C@H](C(=O)N[C@@H](CCCNC(=N)N)C(=O)N[C@@H](CS)C(=O)N[C@@H](CCCNC(=N)N)C(=O)N[C@@H](CCCCN)C(=O)NCC(=O)N[C@@H](Cc1ccccc1)C(=O)N[C@@H](CS)C(=O)N[C@H](C(=O)N[C@@H](CCC(N)=O)C(=O)N[C@H](C(=O)N[C@@H](Cc1c[nH]cn1)C(=O)N[C@@H](CCCCN)C(=O)N[C@@H](Cc1ccccc1)C(=O)N[C@H](C(=O)N1CCC[C@H]1C(=O)O)[C@@H](C)O)[C@@H](C)CC)[C@@H](C)CC)C(C)C)[C@@H](C)CC)[C@@H](C)O)[C@@H](C)CC [NCR358] (H-IYFRKPPPCITDKDCPQMKINNVRCRKGFCIQIHKFTP-OH; N-terminus assumed)	3.125 (≈ 14.2 µg/mL)	able to kill	6.25 (≈ 28.4 µg/mL)	1.6 (≈ 7.26 µg/mL)	25 (≈ 113 µg/mL)	3.125 (≈ 14.2 µg/mL)	3.125 (≈ 14.2 µg/mL)	3.125 (≈ 14.2 µg/mL)	3.125 (≈ 14.2 µg/mL)	capable of killing all tested bacteria; also recorded: active against all the eight tested pathogens	–	–	–
CC[C@H](C)[C@H](NC(=O)[C@H](CCCNC(=N)N)NC(=O)[C@@H](NC(=O)[C@H](CS)NC(=O)[C@H](CCCCN)NC(=O)[C@H](CS)NC(=O)[C@H](Cc1ccccc1)NC(=O)CNC(=O)[C@H](CC(N)=O)NC(=O)[C@@H](NC(=O)[C@H](CS)NC(=O)[C@H](CCCCN)NC(=O)[C@@H]1CCCN1C(=O)[C@@H](NC(=O)[C@H](CCCCN)NC(=O)[C@@H]1CCCN1C(=O)[C@H](CCCCN)NC(=O)[C@H](CCCNC(=N)N)NC(=O)[C@H](CS)NC(=O)[C@H](C)NC(=O)[C@H](Cc1ccccc1)NC(=O)[C@H](CCCCN)NC(=O)[C@H](CCCCN)NC(=O)[C@H](CS)NC(=O)[C@H](CC(=O)O)NC(=O)[C@H](CCCCN)NC(=O)[C@H](CC(=O)O)NC(=O)[C@H](CO)NC(=O)[C@H](CCC(N)=O)NC(=O)[C@H](CS)NC(=O)[C@@H]1CCCN1C(=O)[C@@H](N)CCCCN)C(C)C)[C@@H](C)CC)C(C)C)C(=O)N[C@@H](Cc1c[nH]c2ccccc12)C(=O)O [CaNCR13] (H-KPCQSDKDCKKFACRKPKVPKCINGFCKCVRIW-OH; N-terminus assumed)	–	–	–	–	–	–	–	–	–	broad-spectrum activity	Only dead cells were visible	aggregation of shrunken cells in a spider net like matrix	did not
CC[C@H](C)[C@H](NC(=O)[C@H](CCC(N)=O)NC(=O)[C@H](CCCCN)NC(=O)[C@H](CCCNC(=N)N)NC(=O)[C@@H](NC(=O)[C@H](Cc1ccccc1)NC(=O)[C@H](Cc1ccccc1)NC(=O)[C@H](Cc1ccc(O)cc1)NC(=O)[C@H](Cc1c[nH]cn1)NC(=O)[C@H](CS)NC(=O)[C@H](Cc1ccccc1)NC(=O)[C@H](CCCCN)NC(=O)CNC(=O)[C@@H](NC(=O)[C@H](CS)NC(=O)[C@H](CCSC)NC(=O)[C@H](CCSC)NC(=O)[C@@H](NC(=O)[C@@H](NC(=O)[C@@H]1CCCN1C(=O)[C@H](CCCCN)NC(=O)[C@@H](NC(=O)[C@@H](NC(=O)[C@H](CCCCN)NC(=O)[C@@H]1CCCN1C(=O)[C@H](CS)NC(=O)[C@H](CC(=O)O)NC(=O)[C@H](CC(=O)O)NC(=O)[C@@H](NC(=O)[C@@H](NC(=O)[C@H](C)NC(=O)[C@H](CS)NC(=O)[C@H](CCCNC(=N)N)NC(=O)[C@@H](NC(=O)[C@H](CC(=O)O)NC(=O)[C@H](CC(C)C)NC(=O)[C@H](CCCCN)NC(=O)[C@@H](N)CCC(=O)O)[C@@H](C)CC)[C@@H](C)O)C(C)C)C(C)C)[C@@H](C)O)C(C)C)C(C)C)[C@@H](C)O)C(C)C)C(=O)N[C@@H](CC(C)C)C(=O)O [NCR073] (H-EKLDIRCATVDDCPKVTKPVVMMCTGKFCHYFFVRKQIL-OH; N-terminus assumed)	1.6 (≈ 7.3 µg/mL)	able to kill	6.25 (≈ 28.5 µg/mL)	3.125 (≈ 14.3 µg/mL)	6.25 (≈ 28.5 µg/mL)	6.25 (≈ 28.5 µg/mL)	6.25 (≈ 28.5 µg/mL)	6.25 (≈ 28.5 µg/mL)	6.25 (≈ 28.5 µg/mL)	capable of killing all tested bacteria; also recorded: active against all the eight tested pathogens	–	–	–
CC[C@H](C)[C@H](NC(=O)[C@H](CC(N)=O)NC(=O)[C@H](Cc1ccc(O)cc1)NC(=O)[C@H](CCCCN)NC(=O)[C@H](CCCCN)NC(=O)[C@H](Cc1ccccc1)NC(=O)[C@H](CCCCN)NC(=O)[C@@H]1CCCN1C(=O)[C@H](CS)NC(=O)[C@H](CC(=O)O)NC(=O)[C@H](CCCCN)NC(=O)[C@H](CC(=O)O)NC(=O)[C@@H](NC(=O)[C@@H](NC(=O)[C@H](CS)NC(=O)[C@H](Cc1ccc(O)cc1)NC(=O)[C@H](CCC(N)=O)NC(=O)[C@H](CCCNC(=N)N)NC(=O)[C@@H](NC(=O)[C@H](CC(C)C)NC(=O)[C@@H]1CCCN1C(=O)[C@H](CC(N)=O)NC(=O)[C@H](Cc1ccccc1)NC(=O)[C@H](CO)NC(=O)[C@@H](N)CC(=O)O)[C@@H](C)CC)C(C)C)[C@@H](C)O)C(=O)N[C@@H](CCCNC(=N)N)C(=O)N[C@@H](CS)C(=O)N[C@@H](CCCNC(=N)N)C(=O)N[C@@H](CCCCN)C(=O)NCC(=O)N[C@@H](Cc1ccccc1)C(=O)N[C@@H](CS)C(=O)N[C@H](C(=O)N[C@@H](CCC(N)=O)C(=O)N[C@H](C(=O)N[C@@H](CC(N)=O)C(=O)NCC(=O)NCC(=O)O)C(C)C)C(C)C [NCR377] (H-DSFNPLIRQYCVTDKDCPKFKKYNIRCRKGFCVQVNGG-OH; N-terminus assumed)	6.25 (≈ 27.8 µg/mL)	–	–	3.125 (≈ 13.9 µg/mL)	12.5 (≈ 55.5 µg/mL)	12.5 (≈ 55.5 µg/mL)	3.125 (≈ 13.9 µg/mL)	6.25 (≈ 27.8 µg/mL)	6.25 (≈ 27.8 µg/mL)	kill all bacteria except E. faecalis	–	–	–
